Experimental data taken from patent US11040028B2, “Penicinotam derivative, preparation method and use thereof” (OCEAN UNIVERSITY OF CHINA, priority 2017, dated 2021).

How the values were obtained:
Assay type in all cases: cell-based
[1] = tested on: human embryonic lung fibroblast IMR-90; assay: Anti-fibrosis activity test: inhibition of proliferation of human embryonic lung fibroblast IMR-90 (CCK-8)
Procedure, shortened: (§1)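 Read-out: absorbance at 450 nm after 2 h with CCK-8, following 48 h of compound exposure of adhered cells (2×10^4 cells/mL, 24 h attachment, 37° C, 5% CO2). Proliferation inhibition was taken relative to the blank control, and IC50 values were calculated from it.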

[2] = tested on: mouse macrophages (RAW264.7); assay: Lipopolysaccharide-induced NO secretion in macrophages (Griess); conditions: Mus musculus, RAW264.7, 24 h, RAW264.7, LPS 1 μg/ml, a/b isomers given as first/second symbol, read-out: IC50 (μM), inhibition of lipopolysaccharide-induced NO secretion in macrophages
Procedure, shortened: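 Absorbance at 548 nm after Griess reagent addition to culture supernatant gave NO content; inhibition rate was derived relative to blank control. Cells were mouse RAW264.7 macrophages exposed to compounds and 1 μg/ml LPS for 24 hours.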

[3] = tested on: cardiac fibroblast RAT-iCell-C002; assay: Anti-fibrosis activity test: inhibition of proliferation of cardiac fibroblast RAT-iCell-C002 (CCK-8); conditions: Cardiac fibroblast, 48 h
Procedure, shortened: as §1

[4] = tested on: human dermal fibroblasts CCC-ESF-1; assay: Anti-fibrosis activity test: inhibition of proliferation of human dermal fibroblasts CCC-ESF-1 (CCK-8); conditions: Fibroblast
Procedure, shortened: as §1

[5] = tested on: human hepatic stellate cells LX-2; assay: Anti-fibrosis activity test: inhibition of proliferation of human hepatic stellate cells LX-2 (CCK-8); conditions: Homo sapiens, 48 h
Procedure, shortened: as §1

[6] = tested on: human fibrosarcoma cells HT-1080; assay: Anti-fibrosis activity test: inhibition of proliferation of human fibrosarcoma cells HT-1080 (CCK-8); conditions: Homo sapiens, HT-1080, 48 h
Procedure, shortened: as §1

BHK-21 cells = assay: Anti-fibrosis activity test: inhibition of BHK-21 cell proliferation (CCK-8); conditions: Mesocricetus auratus, BHK-21, 48 h
Procedure, shortened: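 Each concentration was tested in triplicate on adhered BHK-21 cells for 48 h, with pirfenidone as reference. A 2 h CCK-8 incubation preceded absorbance reading at 450 nm, and IC50 was obtained from percent inhibition versus blank.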

[7] = tested on: human lung fibroblasts HFL1; assay: Anti-fibrosis activity test: inhibition of proliferation of human lung fibroblasts HFL1 (CCK-8); conditions: Homo sapiens, HFL1, 48 h
Procedure, shortened: as §1

[8] = human embryonic lung fibroblast IMR-90, CCK-8, 48 hours
[9] = cardiac fibroblast RAT-iCell-C002, CCK-8, 48 hours
[10] = human dermal fibroblasts CCC-ESF-1, CCK-8, 48 hours
[11] = human hepatic stellate cells LX-2, CCK-8, 48 hours
[12] = human fibrosarcoma cells HT-1080, CCK-8, 48 hours
[13] = CCK-8, 48 hours after administration
[14] = human lung fibroblasts HFL1, CCK-8, 48 hours
[15] = Homo sapiens, IMR-90 cells, 48 h, CCK-8
[16] = Homo sapiens, CCC-ESF-1 cells, 48 h, CCK-8

Row | SMILES | IC50 [1, 8] [mM] | IC50 [2] [µM] | IC50 [3, 9] [mM] | IC50 [4, 10] [mM] | IC50 [5, 11] [mM] | IC50 [6, 12] [mM] | IC50 (BHK-21 cells; [13]) [mM] | IC50 [7, 14] [mM] | IC50 [1, 15] [mM] | IC50 ([3]; RAT-iCell-C002 cells, CCK-8) [mM] | IC50 [4, 16] [mM] | IC50 ([5]; LX-2, 48 h, LX-2 cells, CCK-8) [mM] | IC50 ([6]; HT-1080 cells, 48 h, CCK-8) [mM] | IC50 (BHK-21 cells; 48 h, CCK-8) [mM] | IC50 ([7]; HFL1 cells, 48 h, CCK-8) [mM]
1 | O=C1c2c(n(Cc3ccc(F)cc3)c3c(F)c(N4CCNCC4)ccc3c2=O)-c2cccn21 [Compound 485a, 5-Fluoro-4-(4-fluorobenzyl)-6-(piperazin-1-yl)-9H-pyrrolizino[1,2-b]quinoline-9,10(4H)-dione] | 0.05 to 5 | 10 to 50 | 0.05 to 5 | 0.05 to 5 | 0.05 to 5 | 0.05 to 5 | 0.05 to 5 | 0.05 to 5 |  |  |  |  |  |  | 
2 | O=C1c2c(nc3ccc(F)cc3c2Oc2ccc(Cl)cc2)-c2cccn21 [Compound 133b, 9-(4-chlorophenoxy)-7-fluoro-10H-pyrrolizino[1,2-b]quinolin-10-one] | 0.05 to 5 | 1 to 10 | 0.05 to 5 | 0.05 to 5 | 0.05 to 5 | 0.05 to 5 | 0.05 to 5 | 0.05 to 5 |  |  |  |  |  |  | 
3 | COc1c2c(nc3cc(N4CCNCC4)c(F)cc13)-c1cccn1C2=O [Compound 361b, 7-fluoro-9-methoxy-6-(piperazin-1-yl)-10H-pyrrolizino[1,2-b]quinolin-10-one] | 0.05 to 5 | 1 to 10 | 0.05 to 5 | 0.05 to 5 | 5 to 20 | 0.05 to 5 | 0.05 to 5 | 0.05 to 5 |  |  |  |  |  |  | 
4 | O=C1c2c(n(C3CC3)c3ccc(F)cc3c2=O)-c2cccn21 [Compound 144a, 4-Cyclopropyl-7-fluoro-9H-pyrrolizino[1,2-b]quinoline-9,10(4H)-dione] | 0.05 to 5 | 1 to 10 | 0.05 to 5 | 0.05 to 5 | < 0.05 | 0.05 to 5 | 0.05 to 5 | 0.05 to 5 |  |  |  |  |  |  | 
5 | O=C1c2c(nc3cc(N4CCNCC4)c(Cl)cc3c2O)-c2cccn21 [Compound 373b, 7-chloro-9-hydroxy-6-(piperazin-1-yl)-10H-pyrrolizino[1,2-b]quinolin-10-one] | 0.05 to 5 | 1 to 10 | 0.05 to 5 | 0.05 to 5 | 0.05 to 5 | 0.05 to 5 | 0.05 to 5 | 0.05 to 5 |  |  |  |  |  |  | 
6 | O=C1c2c(n(Cc3cccc(Cl)c3)c3cccc(C(F)(F)F)c3c2=O)-c2cccn21 [Compound 466a, 4-(3-Chlorobenzyl)-8-(trifluoromethyl)-9H-pyrrolizino[1,2-b]quinoline-9,10(4H)-dione] | 0.05 to 5 | 1 to 10 | 0.05 to 5 | 0.05 to 5 | < 0.05 | 0.05 to 5 | 0.05 to 5 | 0.05 to 5 |  |  |  |  |  |  | 
7 | O=C1c2c(nc3cc(Cl)ccc3c2OCc2ccc(Cl)cc2)-c2cccn21 [Compound 508b, 6-chloro-9-((4-chlorobenzyl)oxy)-10H-pyrrolizino[1,2-b]quinolin-10-one] | 0.05 to 5 | 1 to 10 | 0.05 to 5 | 0.05 to 5 | 0.05 to 5 | < 0.05 | 0.05 to 5 | 0.05 to 5 |  |  |  |  |  |  | 
8 | O=C1c2c(nc3cccc(F)c3c2OCc2cccc(F)c2)-c2cccn21 [Compound 475b, 8-fluoro-9-((3-fluorobenzyl)oxy)-10H-pyrrolizino[1,2-b]quinolin-10-one] | 0.05 to 5 | 1 to 10 | 0.05 to 5 | 0.05 to 5 | 0.05 to 5 | < 0.05 | 0.05 to 5 | 0.05 to 5 |  |  |  |  |  |  | 
9 | O=C1c2c(n(Cc3ccccc3Cl)c3cccc(C(F)(F)F)c3c2=O)-c2cccn21 [Compound 472a, 4-(2-Chlorobenzyl)-8-(trifluoromethyl)-9H-pyrrolizino[1,2-b]quinoline-9,10(4H)-dione] | 0.05 to 5 | 1 to 10 | 0.05 to 5 | 0.05 to 5 | 0.05 to 5 | 0.05 to 5 | < 0.05 | 0.05 to 5 |  |  |  |  |  |  | 
10 | O=C1c2nc3ccccc3c(OCCCCN3CCNCC3)c2-c2cccn21 [Compound 794b, 11-(4-(piperazin-1-yl)butoxy)-5H-pyrrolizino[2,1-b]quinolin-5-one] |  | 1 to 10 |  |  |  |  |  |  | 0.05 to 5 | 0.05 to 5 | 0.05 to 5 | 0.05 to 5 | 0.05 to 5 | 0.05 to 5 | 0.05 to 5
11 | C=CCOc1c2c(nc3ccc(F)cc13)-c1cccn1C2=O [Compound 109b, 9-(allyloxy)-7-fluoro-10H-pyrrolizino[1,2-b]quinolin-10-one] | 0.05 to 5 | 0.1 to 1 | 0.05 to 5 | 0.05 to 5 | 0.05 to 5 | 0.05 to 5 | 0.05 to 5 | 0.05 to 5 |  |  |  |  |  |  | 
12 | Cc1cc(C)c2[nH]c3c(c(=O)c2c1)-c1cccn1C3=O [Compound 780a, 7,9-Dimethyl-5H-pyrrolizino[2,1-b]quinoline-5,11(6H)-dione] |  | 10 to 50 |  |  |  |  |  |  | 0.05 to 5 | 0.05 to 5 | 0.05 to 5 | 0.05 to 5 | 0.05 to 5 | 0.05 to 5 | 0.05 to 5
13 | O=C1c2c(c(=O)c3ccccc3n2CCCCN2CCCCC2)-c2cccn21 [Compound 788a, 6-(4-(Piperidin-1-yl)butyl)-5H-pyrrolizino[2,1-b]quinoline-5,11(6H)-dione] |  | 1 to 10 |  |  |  |  |  |  | 0.05 to 5 | 0.05 to 5 | 0.05 to 5 | 0.05 to 5 | 0.05 to 5 | 0.05 to 5 | 0.05 to 5
14 | O=C1c2c(nc3cc(N4CCNCC4)c(F)cc3c2OCCO)-c2cccn21 [Compound 348b, 7-fluoro-9-(2-hydroxyethoxy)-6-(piperazin-1-yl)-10H-pyrrolizino[1,2-b]quinolin-10-one] | 0.05 to 5 | 1 to 10 | 0.05 to 5 | 0.05 to 5 | < 0.05 | 0.05 to 5 | 0.05 to 5 | 0.05 to 5 |  |  |  |  |  |  | 
15 | N#Cc1cccc2c(OCc3cccc(F)c3)c3c(nc12)-c1cccn1C3=O [Compound 454b, 9-((3-fluorobenzyl)oxy)-10-oxo-10H-pyrrolizino[1,2-b]quinoline-5-carbonitrile] | 0.05 to 5 | 1 to 10 | 0.05 to 5 | 0.05 to 5 | 0.05 to 5 | 0.05 to 5 | 0.05 to 5 | 0.05 to 5 |  |  |  |  |  |  | 
16 | O=C1c2c(c(=O)c3ccccc3n2Cc2ccc(-c3ccccc3)cc2)-c2cccn21 [Compound 796a, 6-([1,1′-Biphenyl]-4-ylmethyl)-5H-pyrrolizino[2,1-b]quinoline-5,11(6H)-dione] |  | 1 to 10 |  |  |  |  |  |  | 0.05 to 5 | 0.05 to 5 | 0.05 to 5 | 0.05 to 5 | 0.05 to 5 | 0.05 to 5 | 0.05 to 5
17 | C=CCn1c2c(c(=O)c3cc(F)ccc31)C(=O)n1cccc1-2 [Compound 109a, 4-Allyl-7-fluoro-9H-pyrrolizino[1,2-b]quinoline-9,10(4H)-dione] | < 0.05 | 0.1 to 1 | 0.05 to 5 | 0.05 to 5 | 0.05 to 5 | 0.05 to 5 | 0.05 to 5 | 0.05 to 5 |  |  |  |  |  |  | 
18 | O=C1c2c(n(CCO)c3ccc(F)cc3c2=O)-c2cccn21 [Compound 114a, 7-Fluoro-4-(2-hydroxyethyl)-9H-pyrrolizino[1,2-b]quinoline-9,10(4H)-dione] | 0.05 to 5 | 1 to 10 | 0.05 to 5 | 0.05 to 5 | 0.05 to 5 | 0.05 to 5 | < 0.05 | 0.05 to 5 |  |  |  |  |  |  | 
19 | N#Cc1ccccc1-c1ccc(Cn2c3c(c(=O)c4ccccc42)-c2cccn2C3=O)cc1 [Compound 795a, 4′-((5,11-Dioxo-5,11-dihydro-6H-pyrrolizino[2,1-b]quinolin-6-yl)methyl)-[1,1′-biphenyl]-2-carbonitrile] |  | 1 to 10 |  |  |  |  |  |  | 0.05 to 5 | 0.05 to 5 | 0.05 to 5 | 0.05 to 5 | 0.05 to 5 | 0.05 to 5 | 0.05 to 5
20 | N#Cc1cccc2c1c(=O)c1c(n2Cc2ccccc2F)-c2cccn2C1=O [Compound 469a, 4-(2-Fluorobenzyl)-9,10-dioxo-4,10-dihydro-9H-pyrrolizino[1,2-b]quinoline-8-carbonitrile] | 0.05 to 5 | 0.1 to 1 | 0.05 to 5 | 0.05 to 5 | 0.05 to 5 | 5 to 20 | < 0.05 | 0.05 to 5 |  |  |  |  |  |  | 
